The values that follow come from patent publication US20100261770A1, “PHARMACEUTICAL COMPOSITION FOR IMPROVING LOWER URINARY TRACT SYMPTOMS” (ASTELLAS PHARMA INC., priority 2007, published 2010).

Where a name gives a salt, the structure may show the parent alone.

This assay concerns rats with bladder outlet obstruction. Nature of the assay: Effect on premicturition contraction in rats with bladder outlet obstruction. Format: in vivo. To be noted: iv; for inhibition of the premicturition contraction frequency (single use, ground for dose setting): 0.3 mg(/mL)/kg for the acetanilide compound, 0.001 mg(/mL)/kg for the sulfonamide hydrochloride; for ratio of the premicturition contraction frequency relative to the pre-administration value: drug A 0.3 mg/mL/kg, drug B 0.001 mg/mL/kg, AB combination at both doses, first micturition reflex after administration, 5 animals per group; for significant inhibition of the premicturition contraction (frequency): single use at 0.3 mg/kg or 0.001 mg/kg, or both combined, combination compared to any other groups. As to the method:
The rats were fixed to a dorsal position under pentobarbital anesthesia (50 mg/kg ip), and a catheter (PE-20) was inserted into the bladder from the external urethral orifice. A midline incision was made in the lower abdominal wall, and the proximal urethra, together with the catheter, was tied at two sites with a silk suture (5-0), then, the catheter was removed and the surgical wound was sutured, and then ampicillin (150 mg/kg sc) as an antibiotic was administered to the animals which were then housed in a breeding cage. On the 11th to 12th day after the surgery, a midline incision was made in the lower abdominal wall under pentobarbital anesthesia (50 mg/kg ip), and the silk sutures tying the urethra were removed. The bladder was exposed, followed by drainage of urine, and a catheter (PE-50) was inserted into the bladder from the apical part the bladder and fixed. The other end of this catheter was lead to the outside from the posterior cervical region and then the surgical wound was sutured. In addition, a catheter (PE-50) for the drug administration was inserted into the jugular vein, and then the other end thereof was lead to the outside from the posterior cervical region. Ampicillin (150 mg/kg sc) was administered to the animals which were then returned to a breeding cage. Two to three days later, the rats were retained in a Bollman cage. The catheter inserted into the bladder was connected to a three-way stopcock valve, and one end was connected to a syringe pump (STC-525) and micturition reflex was induced by continuous infusion of physiological saline [3.6 to 12 mL/h (adjusted to achieve a voiding interval of 20 to 40 minutes)]. In addition, the other end was connected to a pressure transducer (TP-400T), and intravesical pressure was measured with a pressure amplifier (AP-601G). The premicturition contraction frequency [evaluated for 10 minutes prior to micturition reflex (maximum intravesical pressure); a contraction showing a drop of 1 cmH2O or more after a rise of 2 cmH2O or more was evaluated as one time] after the stabilization of micturition reflex by continuous infusion of physiological saline for 2 hours or more was taken as a pre-administration value. Vehicle or each drug was intravenously administered after intravesical pressure was lowered to a baseline, and the premicturition contraction frequency in the first micturition reflex was taken as a post-administration value, and evaluated by a ratio (%) relative to the pre-administration value. Drugs for the four groups examined are as follows. Evaluation was carried out using 5 animals for each group.

As for `Nc1nc(CC(=O)Nc2ccc(CCNC[C@H](O)c3ccccc3)cc2)cs1` [drug A, (R)-2-(2-aminothiazol-4-yl)-4′-{2-[(2-hydroxy-2-phenylethyl)amino]ethyl}acetanilide], the “inhibition of the premicturition contraction frequency (single use, ground for dose setting)” value was “about 15%”; the “ratio of the premicturition contraction frequency relative to the pre-administration value” was 85.0%; the “significant inhibition of the premicturition contraction (frequency)” value is “not recognized”.

In the case of `CCOc1ccccc1OCCN[C@H](C)Cc1ccc(OC)c(S(N)(=O)=O)c1` [drug B, (R)-5-(2-{[2-(2-ethoxyphenoxy)ethyl]amino}propyl)-2-methoxybenzene-1-sulfonamide hydrochloride], the “inhibition of the premicturition contraction frequency (single use, ground for dose setting)” value is “about 15%”; the “ratio of the premicturition contraction frequency relative to the pre-administration value” turned out to be 84.8%; the “significant inhibition of the premicturition contraction (frequency)” value is “not recognized”.
